According to ChEMBL document CHEMBL1135829, “Investigations on estrogen receptor binding. The estrogenic, antiestrogenic, and cytotoxic properties of C2-alkyl-substituted 1,1-bis(4-hydroxyphenyl)-2-phenylethenes” (J Med Chem, 2002):

Assays:
Estrogen receptor = biological target: T1, Estrogen receptor (Homo sapiens, UniProt P03372); test: Antiestrogenic activity in MCF-7-2a cells as concentration required to reduce estradiol effect by 50%; format: functional, cell-based
T1 sequence (P03372 whole entry): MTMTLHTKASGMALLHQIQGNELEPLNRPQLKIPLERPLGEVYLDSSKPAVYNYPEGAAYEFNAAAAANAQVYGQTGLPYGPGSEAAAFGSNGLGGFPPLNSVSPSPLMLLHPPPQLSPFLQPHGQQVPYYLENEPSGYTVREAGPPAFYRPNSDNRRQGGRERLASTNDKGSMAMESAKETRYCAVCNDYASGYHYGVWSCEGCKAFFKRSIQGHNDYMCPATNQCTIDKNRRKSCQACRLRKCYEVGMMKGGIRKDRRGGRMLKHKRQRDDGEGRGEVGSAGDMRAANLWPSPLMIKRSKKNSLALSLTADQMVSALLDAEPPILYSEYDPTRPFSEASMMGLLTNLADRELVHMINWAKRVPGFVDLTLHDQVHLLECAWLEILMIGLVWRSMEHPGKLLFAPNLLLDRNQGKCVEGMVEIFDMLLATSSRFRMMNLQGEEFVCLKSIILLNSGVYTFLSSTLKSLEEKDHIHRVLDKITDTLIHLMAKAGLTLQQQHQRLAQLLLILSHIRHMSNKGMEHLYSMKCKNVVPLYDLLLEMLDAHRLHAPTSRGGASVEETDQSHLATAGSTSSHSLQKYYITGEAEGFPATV

MCF-7 (Homo sapiens) [1] = test: Cytotoxicity against MCF-7 cells at 5 uM.
MCF-7 (Homo sapiens) [2] = test: Antitumor activity against MCF-7 cells at 5 uM.

Row | SMILES | IC50 (Estrogen receptor) [nM] | Cytotoxicity (MCF-7 (Homo sapiens) [1]) [%] | Cytotoxicity (MCF-7 (Homo sapiens) [2]) [%]
1 | CC(=C(c1ccc(O)cc1)c1ccc(O)cc1)c1ccccc1 | 30 | 90 | 
2 | Oc1ccc(C(=C(CC(F)(F)F)c2ccccc2)c2ccc(O)cc2)cc1 | 9 | 68 | 
3 | Oc1ccc(C(=Cc2ccccc2)c2ccc(O)cc2)cc1 | 150 |  | 92
4 | CC/C(=C(\c1ccccc1)c1ccc(O)cc1)c1ccccc1 | 7 |  | 25
5 | CC/C(=C(\c1ccccc1)c1ccc(OCCN(C)C)cc1)c1ccccc1 [TAMOXIFEN] |  |  | 15

Second part, led by results:

Row | IC50 (Estrogen receptor) [nM] | SMILES | Cytotoxicity (MCF-7 (Homo sapiens) [1]) [%] | Cytotoxicity (MCF-7 (Homo sapiens) [2]) [%]
6 | 15 | CCC(=C(c1ccc(O)cc1)c1ccc(O)cc1)c1ccccc1 | 99 | 
7 | 500 | CCCCC(=C(c1ccc(O)cc1)c1ccc(O)cc1)c1ccccc1 |  | 87
8 | 50 | CCCC(=C(c1ccc(O)cc1)c1ccc(O)cc1)c1ccccc1 | 98 | 
